Laboratory results: the supplement of paper PMC4858399
Where a name gives a salt, the structure may show the parent alone.

Assays:
Conditions in all cases: exposure time 48 h
[1] = system: Caenorhabditis elegans N2; test: lowest effective concentration for larval growth inhibition (size below effect threshold); higher = less potent
Method in brief: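 Each well of a 96-well plate received 50 C. elegans N2 L1 larvae, which grew for 48 h at 20°C in K-medium containing killed bacteria, 1% DMSO and the chemical at 0.5, 1, 5, 10, 50, 100 or 200 µM. A Biosort recorded the extinction of every worm as its size, and these readings were log-transformed and averaged per well. The lowest effective concentration is defined as the first dose at which the plate-adjusted mean size falls below the threshold and stays below it at all higher doses; that threshold is 5.665.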

[2] = system: Caenorhabditis elegans N2; test: mean nematode size ln(EXT) after 48 h, plate-adjusted (DMSO control set to 6) (ln(EXT), control-adjusted); higher = larger nematodes / less growth inhibition
Method in brief: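 C. elegans N2 larvae, synchronised at L1, grew for 48 h at 20°C in K-medium with killed OP50, 1% DMSO and 0.5–200 µM chemical. Mean size per well was derived from natural-logged Biosort extinction after a growth model removed debris. Adjustment across plates involved subtracting the vehicle control mean and adding 6.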

[3] = system: Caenorhabditis elegans N2; test: AC50 for larval growth inhibition (Hill fit); higher = less potent
Method in brief: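 Synchronised C. elegans N2 L1 larvae (50 per well, 96-well plates) were grown for 48 h at 20°C in K-medium with killed OP50, 1% DMSO and 0.5–200 µM chemical. The COPAS Biosort measured each worm's size as extinction, which was log-transformed and averaged per well. AC50 came from a constrained Hill fit by weighted genetic-algorithm regression on wells with at least 10 worms. Out-of-range values are censored.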

Row | Structure (SMILES) | lowest effective concentration [1] [µM] | mean nematode size ln(EXT) (ln) ([2]; 0.5 µM) | mean nematode size ln(EXT) (ln) ([2]; 1 µM) | mean nematode size ln(EXT) (ln) ([2]; 5 µM) | mean nematode size ln(EXT) (ln) ([2]; 10 µM) | mean nematode size ln(EXT) (ln) ([2]; 50 µM) | mean nematode size ln(EXT) (ln) ([2]; 100 µM) | mean nematode size ln(EXT) (ln) ([2]; 200 µM) | AC50 for larval growth inhibition [3] [µM]
1 | CCC1(c2ccccc2)C(=O)NC(=O)NC1=O [Phenobarbital sodium salt] | 200 | 5.87 | 5.82 | 5.88 | 5.86 | 5.87 | 5.91 | 5.65 | > 200
2 | Oc1cc2ccccc2c2ccccc12 [9-Phenanthrol] | 50 | 5.85 | 5.85 | 5.84 | 5.72 | 5.41 | 4.71 | 4.03 | 119
3 | CCCCNC(=O)n1c(NC(=O)OC)nc2ccccc21 [Benomyl] | 10 | 6.03 | 6.07 | 5.68 | 5.58 | 5.36 | 5.4 | 4.35 | > 200
4 | CCOP(=S)(OCC)Oc1cc(C)nc(C(C)C)n1 [Diazinon] | 50 | 5.98 | 5.94 | 5.84 | 5.86 | 5.33 | 4.12 | 3.6 | 70.9
5 | Oc1ccc(C(c2ccc(O)cc2)C(Cl)(Cl)Cl)cc1 [2,2-Bis(4-hydroxyphenyl)-1,1,1-trichloroethane (HPTE)] | 50 | 6.16 | 6.15 | 6.1 | 6.01 | 5.25 | 4.61 | 4.12 | 66.9
6 | O=C(Nc1ccccc1)Nc1cnns1 [Thidiazuron] | 200 | 6.05 | 6.18 | 6.1 | 5.93 | 6.01 | 5.89 | 4.8 | > 200
7 | NCc1cccc(C2CCN(C(=O)c3ccc(C#Cc4ccccc4F)o3)CC2)c1 | 5 | 5.96 | 5.71 | 5.61 | 5.42 | 4.45 | 3.28 |  | 31.6
8 | CCCCCCCCN(C)CCCCCCCC [N-Methyldioctylamine] | 200 | 5.78 | 5.86 | 5.87 | 5.75 | 5.78 | 5.83 | 4.13 | 182
9 | Brc1ccc(Oc2ccccc2)cc1 [p-Bromodiphenyl-ether] | 5 | 5.7 | 5.75 | 5.55 | 5.54 | 4.74 | 4.03 | 3.65 | 52.5
10 | CCCN(CCC)c1c([N+](=O)[O-])cc(C(C)C)cc1[N+](=O)[O-] [Isopropalin] | 50 | 5.89 | 5.9 | 5.87 | 5.73 | 5.47 | 5.14 | 4.96 | > 200
11 | CCCCOC(=O)c1ccccc1 [Butyl benzoate] | 200 | 6 | 5.94 | 5.85 | 5.83 | 6 | 5.76 | 5.53 | 100
12 | O=C1O[C@H]([C@@H](O)CO)C([O-])=C1O.[Na+] [(+)-Sodium L-ascorbate] | 50 | 5.84 | 5.88 | 5.78 | 5.85 | 5.29 | 5.05 | 3.96 | 132
13 | CCCCCCCCCCCCO [1-Dodecanol] | 10 | 5.89 | 5.85 | 5.73 | 5.63 | 3.72 | 3.69 | 3.49 | 20.3
14 | OCCC(F)(F)C(F)(F)C(F)(F)C(F)(F)C(F)(F)C(F)(F)C(F)(F)C(F)(F)F [1,1,2,2-Tetrahydroperfluoro-1-decanol] | 10 | 5.86 | 5.67 | 5.72 | 5.62 | 5.54 | 5.37 | 4.6 | > 200
15 | C1CCC(SSC2CCCCC2)CC1 [Dicyclohexyl disulfide] | 50 | 5.76 | 5.82 | 5.78 | 5.74 | 5.65 | 5.62 | 5.44 | > 200
16 | CC1(C)C(C(=O)OC(C#N)c2cccc(Oc3ccccc3)c2)C1(C)C (stereo unspecified) [Fenpropathrin] | 50 | 5.91 | 5.81 | 5.77 | 5.93 | 5.22 | 5.22 | 4.68 | > 200
17 | CCOP(=O)(SC(C)CC)N1CCSC1=O (stereo unspecified) [Fosthiazate] | 200 | 5.92 | 5.99 | 6.15 | 6.12 | 5.94 | 5.79 | 5.64 | 93.1
18 | CC(C)N(C(=O)SCC(Cl)=C(Cl)Cl)C(C)C [Tri-allate] | 50 | 5.72 | 5.91 | 5.86 | 5.9 | 5.39 | 4.62 | 3.99 | 86.7
19 | CC(C)C(=O)Nc1ccc([N+](=O)[O-])c(C(F)(F)F)c1 [Flutamide] | 10 | 5.89 | 5.88 | 5.89 | 5.62 | 4.96 | 4.82 | 4.05 | 112
20 | Oc1ccc(Cl)cc1Cl [2,4-Dichlorophenol] | > 200 | 6.05 | 6.13 | 6.07 | 6.04 | 6.03 | 6.03 | 6.92 | 
21 | CN1COCN(Cc2cnc(Cl)s2)/C1=N\[N+](=O)[O-] [Thiamethoxam] | > 200 | 5.81 | 5.7 | 5.73 | 5.88 | 5.8 | 5.88 | 5.91 | 
